Data from ChEMBL document CHEMBL1201862, “PubChem BioAssay data set” (2004).
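Following 48 hours of exposure in 96-well plates, responses at five concentrations were used to interpolate endpoints linearly. Here, GI50 denotes the concentration required for 50% inhibition of growth.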 The source made the active and inactive calls. Rule as the data show it: active = GI50 up to about 1.1 µM and inactive = higher.

Assays:
Test in all cases: growth of human tumour cells (NCI), 48 h
NCI/ADR-RES = system: NCI/ADR-RES
NCI-H460 = system: NCI-H460
SF-539 = system: SF-539
RPMI-8226 = system: RPMI-8226
SNB-75 = system: SNB-75
K562 = system: K562
SK-MEL-2 = system: SK-MEL-2
MCF7 = system: MCF7
A498 = system: A498
OVCAR-4 = system: OVCAR-4
SK-MEL-5 = system: SK-MEL-5
A549 = system: A549
HOP-92 = system: HOP-92
UACC-257 = system: UACC-257
SK-OV-3 = system: SK-OV-3
SF-268 = system: SF-268
SR = system: SR
MDA-MB-231 = system: MDA-MB-231
TK-10 = system: TK-10
T47D = system: T47D

| Structure (SMILES) | GI50 (NCI/ADR-RES) | GI50 (NCI-H460) | GI50 (SF-539) | GI50 (RPMI-8226) | GI50 (SNB-75) | GI50 (K562) | GI50 (SK-MEL-2) | GI50 (MCF7) | GI50 (A498) | GI50 (OVCAR-4) | GI50 (SK-MEL-5) | GI50 (A549) | GI50 (HOP-92) | GI50 (UACC-257) | GI50 (SK-OV-3) | GI50 (SF-268) | GI50 (SR) | GI50 (MDA-MB-231) | GI50 (TK-10) | GI50 (T47D) |
| --- | --- | --- | --- | --- | --- | --- | --- | --- | --- | --- | --- | --- | --- | --- | --- | --- | --- | --- | --- | --- |
| Cc1ccc(C(=O)Nc2ncn(C3CC(O)C(CO)O3)c(=O)n2)cc1 (stereo not given) | > 100 µM (inactive) | > 100 µM (inactive) | > 100 µM (inactive) | > 45.9 µM (inactive) | > 52.6 µM (inactive) | > 100 µM (inactive) | > 100 µM (inactive) | > 100 µM (inactive) | > 100 µM (inactive) | > 100 µM (inactive) | > 100 µM (inactive) | > 100 µM (inactive) | > 100 µM (inactive) | > 100 µM (inactive) | > 100 µM (inactive) | > 100 µM (inactive) | – | – | – | – |
| C[C@@H]1OC(=O)C[C@H]2CC(=O)N(CCC3CN(S(=O)(=O)C(F)(F)F)c4ccccc43)C[C@@H]21 (stereo not given in full) | > 100 µM (inactive) | > 100 µM (inactive) | – | > 100 µM (inactive) | – | > 100 µM (inactive) | > 100 µM (inactive) | > 100 µM (inactive) | > 100 µM (inactive) | > 100 µM (inactive) | > 100 µM (inactive) | > 100 µM (inactive) | > 100 µM (inactive) | > 100 µM (inactive) | > 100 µM (inactive) | – | > 100 µM (inactive) | > 100 µM (inactive) | – | – |
| [O-][n+]1c(CN2CCCCC2)nc2cccc3c2c1-c1ccccc1-3 | 22.4 µM (inactive) | 18 µM (inactive) | 23.9 µM (inactive) | 23.7 µM (inactive) | 24.6 µM (inactive) | 77.6 µM (inactive) | 23 µM (inactive) | 4.22 µM (inactive) | 18.2 µM (inactive) | 31.3 µM (inactive) | 16.1 µM (inactive) | 15.7 µM (inactive) | 25.1 µM (inactive) | 18.4 µM (inactive) | 26.1 µM (inactive) | – | 43.5 µM (inactive) | 23 µM (inactive) | 27.2 µM (inactive) | – |
| CCOP1(=O)CC(C)=C(Cl)C(OC)C1 (stereo not given) | > 100 µM (inactive) | > 100 µM (inactive) | > 100 µM (inactive) | > 100 µM (inactive) | > 100 µM (inactive) | 30.5 µM (inactive) | > 100 µM (inactive) | > 100 µM (inactive) | > 100 µM (inactive) | > 100 µM (inactive) | > 100 µM (inactive) | > 100 µM (inactive) | > 100 µM (inactive) | > 100 µM (inactive) | > 100 µM (inactive) | > 100 µM (inactive) | > 100 µM (inactive) | > 100 µM (inactive) | > 100 µM (inactive) | – |
| COC(=O)C1=C(O)C(C(=O)OC)[C@@]2(O)[C@@H](C(=O)OC)[C@H](C)[C@@H](C)[C@@H]1[C@@H]2C(=O)OC (stereo not given in full) | – | 44.9 µM (inactive) | 35.6 µM (inactive) | 51.1 µM (inactive) | 57.7 µM (inactive) | 35.6 µM (inactive) | 48.5 µM (inactive) | 38.1 µM (inactive) | > 100 µM (inactive) | – | – | – | – | 46.6 µM (inactive) | 49.4 µM (inactive) | > 100 µM (inactive) | 28.2 µM (inactive) | > 100 µM (inactive) | > 100 µM (inactive) | > 100 µM (inactive) |
| CN(C)CCNC(=O)c1cccc2nc(-c3ccccc3)oc12 | 42.9 µM (inactive) | 30.4 µM (inactive) | 49.9 µM (inactive) | 34.6 µM (inactive) | 13.5 µM (inactive) | 1.94 µM (inactive) | > 62.5 µM (inactive) | 14.7 µM (inactive) | 27.7 µM (inactive) | 26.5 µM (inactive) | 22.3 µM (inactive) | 42.6 µM (inactive) | 13 µM (inactive) | 36.3 µM (inactive) | 34.4 µM (inactive) | > 64.6 µM (inactive) | – | – | – | – |
| O=P1(O)C=CC2(CCCC2)O1 | > 100 µM (inactive) | > 100 µM (inactive) | > 100 µM (inactive) | – | > 100 µM (inactive) | > 100 µM (inactive) | > 100 µM (inactive) | > 100 µM (inactive) | > 100 µM (inactive) | > 100 µM (inactive) | > 100 µM (inactive) | > 100 µM (inactive) | > 100 µM (inactive) | > 100 µM (inactive) | > 100 µM (inactive) | > 100 µM (inactive) | > 100 µM (inactive) | – | > 100 µM (inactive) | > 100 µM (inactive) |
| O=C1OC(=O)C2=C1C(c1cccs1)C=C(c1cccnc1)N2c1ccncc1 (stereo not given) | 29.4 µM (inactive) | 17.3 µM (inactive) | – | 13 µM (inactive) | 15.2 µM (inactive) | 9.12 µM (inactive) | 15.4 µM (inactive) | – | 18.7 µM (inactive) | 20 µM (inactive) | 17.4 µM (inactive) | 17.6 µM (inactive) | 12.8 µM (inactive) | 12.3 µM (inactive) | 24.9 µM (inactive) | 16.6 µM (inactive) | 1.12 µM (active) | 19.9 µM (inactive) | 17 µM (inactive) | 18.2 µM (inactive) |
| COCN1C(=O)[C@@H]2CCCN2C(=O)c2ccc(N)cc21 | > 100 µM (inactive) | > 100 µM (inactive) | > 100 µM (inactive) | > 100 µM (inactive) | > 100 µM (inactive) | > 100 µM (inactive) | > 100 µM (inactive) | > 100 µM (inactive) | > 100 µM (inactive) | > 100 µM (inactive) | > 100 µM (inactive) | > 100 µM (inactive) | > 100 µM (inactive) | > 100 µM (inactive) | > 100 µM (inactive) | > 100 µM (inactive) | > 100 µM (inactive) | > 100 µM (inactive) | > 100 µM (inactive) | – |
| CC[C@@]1(O)C[C@H](OC2CC(N(C)C)C(OC3CC(O)C(OC4CC(O)C(O)C(C)O4)C(C)O3)C(C)O2)c2c(cc3c(c2O)C(=O)c2c(O)ccc(O)c2C3=O)[C@H]1C(=O)OC (stereo not given in full) | 0.625 µM (active) | 0.00577 µM (active) | < 0.0214 µM (active) | 0.011 µM (active) | 0.0548 µM (active) | 0.0109 µM (active) | 0.0398 µM (active) | 0.0156 µM (active) | 0.0146 µM (active) | 0.0371 µM (active) | 0.0194 µM (active) | 0.0105 µM (active) | 0.0902 µM (active) | 0.0255 µM (active) | 0.0811 µM (active) | 0.0263 µM (active) | – | – | – | – |
| CCCCCOc1ccc(/C=N\c2ccc(-c3ccc(/N=C\c4ccc(OCCCCC)cc4)c(OC)c3)cc2OC)cc1 | > 100 µM (inactive) | > 100 µM (inactive) | > 100 µM (inactive) | > 100 µM (inactive) | 46.9 µM (inactive) | > 31.6 µM (inactive) | > 100 µM (inactive) | > 100 µM (inactive) | > 100 µM (inactive) | > 31.6 µM (inactive) | > 100 µM (inactive) | > 100 µM (inactive) | > 100 µM (inactive) | > 100 µM (inactive) | > 100 µM (inactive) | > 100 µM (inactive) | – | – | – | – |
| CCOC(=O)C(NC(=O)Nc1ccccc1F)(OC)C(F)(F)F (stereo not given) | > 100 µM (inactive) | – | > 100 µM (inactive) | > 100 µM (inactive) | > 100 µM (inactive) | > 100 µM (inactive) | > 100 µM (inactive) | – | > 100 µM (inactive) | – | > 100 µM (inactive) | > 100 µM (inactive) | – | > 100 µM (inactive) | > 100 µM (inactive) | > 100 µM (inactive) | > 100 µM (inactive) | – | > 100 µM (inactive) | > 100 µM (inactive) |
| Cc1cc(O)c2c(c1O)C(=O)C1=C(C2=O)C(=O)C2C(O)C1C1C(O)CC(O)=C3C(=O)c4c(O)cc(C)c(O)c4C(=O)C321 (stereo not given) | – | 1.46 µM (inactive) | 1.94 µM (inactive) | 0.164 µM (active) | 1.03 µM (active) | 0.506 µM (active) | 1.73 µM (inactive) | 2.62 µM (inactive) | 1.27 µM (inactive) | 6.04 µM (inactive) | 1.65 µM (inactive) | 0.693 µM (active) | – | 0.789 µM (active) | 2.24 µM (inactive) | 2.28 µM (inactive) | 2.36 µM (inactive) | 2.64 µM (inactive) | 3.14 µM (inactive) | 1.24 µM (inactive) |
| CC(=O)Nc1ccc(/C=C/c2ccc(NC(=O)Nc3ccc(/C=C/c4ccc(NC(C)=O)cc4S(=O)(=O)O)c(S(=O)(=O)O)c3)cc2S(=O)(=O)O)c(S(=O)(=O)O)c1 | > 100 µM (inactive) | > 100 µM (inactive) | > 100 µM (inactive) | > 100 µM (inactive) | 53.8 µM (inactive) | > 100 µM (inactive) | > 100 µM (inactive) | > 100 µM (inactive) | > 100 µM (inactive) | > 100 µM (inactive) | > 100 µM (inactive) | > 100 µM (inactive) | 43.1 µM (inactive) | > 100 µM (inactive) | > 100 µM (inactive) | > 100 µM (inactive) | – | – | – | – |
| NC(=O)c1c(NC=O)ncn1C1OCC(O)C(O)C1O (stereo not given) | > 100 µM (inactive) | > 100 µM (inactive) | > 100 µM (inactive) | > 100 µM (inactive) | > 100 µM (inactive) | > 100 µM (inactive) | > 100 µM (inactive) | – | – | > 100 µM (inactive) | > 100 µM (inactive) | > 100 µM (inactive) | > 100 µM (inactive) | > 100 µM (inactive) | > 100 µM (inactive) | > 100 µM (inactive) | > 100 µM (inactive) | > 100 µM (inactive) | > 100 µM (inactive) | > 100 µM (inactive) |
| COc1cc(O)c2c(=O)c(O)c(-c3ccc(O)c(OC)c3)oc2c1 [RHAMNAZIN] | 5.05 µM (inactive) | 2.64 µM (inactive) | 3.7 µM (inactive) | 5.98 µM (inactive) | 2.28 µM (inactive) | 4.37 µM (inactive) | > 100 µM (inactive) | 2.72 µM (inactive) | 2.73 µM (inactive) | 2.48 µM (inactive) | – | > 22.9 µM (inactive) | 0.838 µM (active) | > 100 µM (inactive) | – | 1.89 µM (inactive) | – | 5.57 µM (inactive) | > 100 µM (inactive) | > 100 µM (inactive) |
